Reference: article PMC10713630, “Elucidation of the structural basis for ligand binding and translocation in conserved insect odorant receptor co-receptors” (Nature Communications, 2023)
Several values for one entry are separate records, joined by “and”; a condition that tells them apart may be missing. Equal values may be shown once. Entries after “also recorded” stand apart in the source; their conditions may differ.

Experiments:
[1] = molecular target: DmelOrco F83W (Drosophila melanogaster, UniProt Q9VNB5, F83W); assay: TEVC recording of VUAA1-induced current, DmelOrco F83W in Xenopus oocytes; type: cell-based; settings: 500 µM VUAA1, TEVC
From the text: (§1) All Orco gene sequences were optimized[63] for protein expression in Xenopus laevis oocytes with the GenSmartTM Codon optimization Tool and subcloned into a pGEMHE-derived vector. The wildtype gene of Drosophila melanogaster Orco (DmelOrco) was synthesized by Genscript and subcloned with XmaI/XhoI cloning sites. Site-directed mutagenesis of DmelOrco was done by PCR with the Q5® site directed mutagenesis kit (NEB) using primers optimized with the NEBase Changer online tool and following the supplier’s protocol. After transformation of commercial competent bacteria (XL10 Gold) by standard heat-shock protocol and overnight culture in ampicillin-containing LB plates, positive clones were identified by electrophoretic restriction profile and external sequencing (Genewiz). DNAs of positive clones were amplified with Qiagen MidiPrep Kit and the ORF was fully sequenced. For in vitro transcription, DNAs were linearized with restriction enzyme NotI that cuts a unique site in the 3′ region of the polyA tail. […] DNA and RNA were analyzed by agarose-gel electrophoresis and quantified by spectrophotometry. […]
(§2) Whole cell currents were recorded with the two-electrode voltage-clamp (TEVC) technique with the HiClamp robot (MultiChannel System). […] Data were extracted with M. Vivaudou’s programs[65] and statistically analyzed with Prism 8 (Graphpad).

[2] = test system: non-injected oocytes; assay: TEVC recording, negative control (NC) oocytes, non-injected or water-injected; type: cell-based, Xenopus laevis; settings: Fig.4b; individual oocytes; in µA
Experimental: (§3) Xenopus laevis oocytes were prepared, as previously described. Briefly, oocytes were defolliculated after surgical retrieval by type 1 A collagenase over 2-3 h under smooth horizontal agitation. They were manually selected and incubated at 19 °C in modified-Barth’s solution (1 mM KCl, 0.82 mM MgSO4, 88 mM NaCl, 2.4 mM NaHCO3, 0.41 mM CaCl2, Ca(NO3)2 0.3 mM, 16 mM HEPES, pH 7.4) supplemented with 100 U mL^−1 of penicillin and streptomycin and 0.1 mg mL^−1 of gentamycin. Each oocyte was micro-injected with the Nanoject instrument (Drummond) with 50 nL of 20 ng of mRNA coding for the Orco of interest. Injected oocytes were incubated individually in 96-well plates for 4 days at 19 °C in the same buffer. Different batches of oocytes have been tested per construct. The results of the mutants of interest have been confirmed by a second set of experiments comparing the amplitudes with WT in the same day and from the same batch of oocytes (Supplementary Fig. 11).
Whole cell currents were recorded with the two-electrode voltage-clamp (TEVC) technique with the HiClamp robot (MultiChannel System). Microelectrodes were filled with 3 M KCl. The high K^+ buffer used for recordings was composed of 91 mM KCl, 1 mM MgCl2, 1.8 mM CaCl2, 5 mM HEPES, pH 7.4. […] Data were extracted with M. Vivaudou’s programs[65] and statistically analyzed with Prism 8 (Graphpad).

[3] = molecular target: DmelOrco I79W (Drosophila melanogaster, UniProt Q9VNB5, I79W); assay: TEVC recording of VUAA1-induced current, DmelOrco I79W in Xenopus oocytes; type: cell-based; parameters: VUAA1-induced current, i79W: unit not given here; settings: for VUAA1-induced current, i79W: individual oocytes
From the text: (§4) All Orco gene sequences were optimized[63] for protein expression in Xenopus laevis oocytes with the GenSmartTM Codon optimization Tool and subcloned into a pGEMHE-derived vector. The wildtype gene of Drosophila melanogaster Orco (DmelOrco) was synthesized by Genscript and subcloned with XmaI/XhoI cloning sites. Site-directed mutagenesis of DmelOrco was done by PCR with the Q5® site directed mutagenesis kit (NEB) using primers optimized with the NEBase Changer online tool and following the supplier’s protocol. After transformation of commercial competent bacteria (XL10 Gold) by standard heat-shock protocol and overnight culture in ampicillin-containing LB plates, positive clones were identified by electrophoretic restriction profile and external sequencing (Genewiz). DNAs of positive clones were amplified with Qiagen MidiPrep Kit and the ORF was fully sequenced. For in vitro transcription, DNAs were linearized with restriction enzyme NotI that cuts a unique site in the 3′ region of the polyA tail. The linearized DNAs were purified by the standard phenol:chloroform extraction method and transcribed into mRNA using the T7 ultra mMessage mMachine kit (Thermo Fisher Scientific). mRNAs were purified with the NucleoSpin RNA plus XS kit (Machery-Nagel). DNA and RNA were analyzed by agarose-gel electrophoresis and quantified by spectrophotometry.
as §3
(§5) Whole cell currents were recorded with the two-electrode voltage-clamp (TEVC) technique with the HiClamp robot (MultiChannel System). Microelectrodes were filled with 3 M KCl. The high K^+ buffer used for recordings was composed of 91 mM KCl, 1 mM MgCl2, 1.8 mM CaCl2, 5 mM HEPES, pH 7.4. Membrane voltage was clamped to −50 mV and VUAA1 was applied for 60 s. Data were extracted with M. Vivaudou’s programs[65] and statistically analyzed with Prism 8 (Graphpad).

[4] = molecular target: DmelOrco Y400S (Drosophila melanogaster, UniProt Q9VNB5, Y400S); assay: TEVC recording of VUAA1-induced current, DmelOrco Y400S in Xenopus oocytes; type: cell-based; settings: 500 µM VUAA1, TEVC
From the text: as §1, §2

[5] = molecular target: DmelOrco S146A (Drosophila melanogaster, UniProt Q9VNB5, S146A); assay: TEVC recording of VUAA1-induced current, DmelOrco S146A in Xenopus oocytes; type: cell-based
From the text: as §1, §2

[6] = molecular target: DmelOrco M210W (Drosophila melanogaster, UniProt Q9VNB5, M210W); assay: TEVC recording of VUAA1-induced current, DmelOrco M210W in Xenopus oocytes; type: cell-based
From the text: as §4, §3, §5

[7] = molecular target: DmelOrco Y390F (Drosophila melanogaster, UniProt Q9VNB5, Y390F); assay: TEVC recording of VUAA1-induced current, DmelOrco Y390F in Xenopus oocytes; type: cell-based; settings: 500 µM VUAA1, TEVC
From the text: as §1, §2

[8] = molecular target: T1, DmelOrco WT (Drosophila melanogaster, UniProt Q9VNB5); assay: TEVC recording of VUAA1-induced current, DmelOrco WT in Xenopus oocytes; type: cell-based; parameters: VUAA1-induced current, WT: unit not given here; settings: for VUAA1-induced current, WT: individual oocytes
T1 sequence (Q9VNB5 1-486): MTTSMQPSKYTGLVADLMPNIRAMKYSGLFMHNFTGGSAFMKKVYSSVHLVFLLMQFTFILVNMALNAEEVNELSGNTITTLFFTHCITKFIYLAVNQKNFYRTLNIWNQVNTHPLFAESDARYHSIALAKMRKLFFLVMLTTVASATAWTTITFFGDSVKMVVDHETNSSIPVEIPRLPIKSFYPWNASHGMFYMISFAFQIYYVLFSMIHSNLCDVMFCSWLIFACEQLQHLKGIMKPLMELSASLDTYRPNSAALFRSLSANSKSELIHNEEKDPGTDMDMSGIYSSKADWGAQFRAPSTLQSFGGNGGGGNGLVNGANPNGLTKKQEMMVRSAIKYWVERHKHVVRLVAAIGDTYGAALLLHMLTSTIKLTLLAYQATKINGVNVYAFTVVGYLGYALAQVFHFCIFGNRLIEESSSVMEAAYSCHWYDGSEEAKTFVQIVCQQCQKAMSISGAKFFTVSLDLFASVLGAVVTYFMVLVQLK
From the text: as §4, §3, §5

[9] = Fig.4i dose-response, VUAA1 10 µM (Log(M) -5)
[10] = Fig.4i dose-response, VUAA1 25 µM (Log(M) -4.6)
[11] = Fig.4i dose-response, VUAA1 50 µM (Log(M) -4.3)
[12] = Fig.4i dose-response, VUAA1 100 µM (Log(M) -4)
[13] = Fig.4i dose-response, VUAA1 500 µM (Log(M) -3.3)

DmelOrco M210W, sequence (Q9VNB5 whole entry M210W, the tested form may be a part): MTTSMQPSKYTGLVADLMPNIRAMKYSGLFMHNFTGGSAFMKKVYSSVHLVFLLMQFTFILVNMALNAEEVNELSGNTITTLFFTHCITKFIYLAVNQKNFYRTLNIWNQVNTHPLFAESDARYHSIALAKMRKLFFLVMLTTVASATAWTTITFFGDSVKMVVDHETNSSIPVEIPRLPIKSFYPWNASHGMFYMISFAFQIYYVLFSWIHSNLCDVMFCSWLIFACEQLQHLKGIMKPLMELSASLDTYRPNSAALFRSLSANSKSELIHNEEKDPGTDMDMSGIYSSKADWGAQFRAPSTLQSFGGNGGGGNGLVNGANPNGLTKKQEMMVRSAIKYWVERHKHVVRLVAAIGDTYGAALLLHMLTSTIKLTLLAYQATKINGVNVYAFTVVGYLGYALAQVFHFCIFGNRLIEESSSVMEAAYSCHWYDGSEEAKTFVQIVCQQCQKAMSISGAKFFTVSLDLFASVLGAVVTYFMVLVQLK
DmelOrco I79W, sequence (Q9VNB5 whole entry I79W, the tested form may be a part): as the sequence (Q9VNB5 whole entry M210W, the tested form may be a part) above, with I79W, W210M counted along it
DmelOrco F83W, sequence (Q9VNB5 whole entry F83W, the tested form may be a part): as the sequence (Q9VNB5 whole entry M210W, the tested form may be a part) above, with F83W, W210M counted along it
DmelOrco S146A, sequence (Q9VNB5 whole entry S146A, the tested form may be a part): as the sequence (Q9VNB5 whole entry M210W, the tested form may be a part) above, with S146A, W210M counted along it
DmelOrco Y390F, sequence (Q9VNB5 whole entry Y390F, the tested form may be a part): as the sequence (Q9VNB5 whole entry M210W, the tested form may be a part) above, with W210M, Y390F counted along it
DmelOrco Y400S, sequence (Q9VNB5 whole entry Y400S, the tested form may be a part): as the sequence (Q9VNB5 whole entry M210W, the tested form may be a part) above, with W210M, Y400S counted along it

## CCc1ccc(NC(=O)CSc2nnc(-c3cccnc3)n2CC)cc1 [VUAA1, N-(4-ethylphenyl)−2-((4-ethyl-5-(3-pyridinyl)−4H-1,2,4-triazol-3-yl)thio)acetamide]
[1]
  Response to VUAA1 compared with WT: decreased the response; also recorded: significant decrease in the response
[2]
  VUAA1-induced current, NC: 0.05 and 0.03 and 0.3 and 0.19 and 0.39 and 0.02
[3]; 500 µM VUAA1, TEVC, I79W
  Response to VUAA1 compared with WT: significantly reduced or abolished the activation
[3]; Fig.4b
  VUAA1-induced current, i79W: 0.5 and 0.66 and 0.09 and 0.23 and 0.24 and 0.02 and 0.06 and 0.14 and 0.05
[3]; [9]
  VUAA1-induced current, i79W: 0.07 (2×) and 0.12 and 0.2 and 0.01 (3×) and 0.02 and 0.41 and 0.18
[3]; [10]
  VUAA1-induced current, i79W: 0.12 and 0.11 and 0.22 and 0.36 and 0.01 (3×) and 0.03 and 0.6 and 0.26
[3]; [11]
  VUAA1-induced current, i79W: 0.18 and 0.17 and 0.32 and 0.56 and 0.02 (2×) and 0.03 and 0.05 and 0.68 and 0.28
[3]; [12]
  VUAA1-induced current, i79W: 0.23 and 0.22 and 0.41 and 0.7 and 0.02 (2×) and 0.06 and 0.09 and 0.71 and 0.29
[3]; [13]
  VUAA1-induced current, i79W: 0.29 and 0.28 and 0.52 and 0.84 and 0.02 and 0.07 and 0.12 and 0.82 and 0.03 and 0.25
[3]; Fig.4i dose-response, VUAA1 1000 µM (Log(M) -3)
  VUAA1-induced current, i79W: 0.38 and 0.36 and 0.67 and 1.01 and 0.03 and 0.09 and 0.14 and 0.96 and 0.04 and 0.24
[3]; concentration-effect curve of VUAA1, TEVC, I79W
  Imax: 0.65 µA
[4]
  Response to VUAA1 compared with WT: did not significantly change the response
[5]; 500 µM VUAA1, TEVC, S146A
  Current induced by VUAA1 (median): 7.55 µA
[5]; DmelOrco S146A
  Effect on VUAA1-induced channel response: I
[6]
  EC50: 120 µM
[6]; 500 µM VUAA1, TEVC, M210W
  Current induced by VUAA1 (median): 2.12 µA
  Response to VUAA1 compared with WT: significant decrease in the response
[6]; concentration-effect curve of VUAA1, TEVC, M210W
  Imax: 1.50 µA
[7]
  Response to VUAA1 compared with WT: did not show significant change
[8]; 500 µM VUAA1, TEVC, WT
  Current induced by VUAA1 (median): 4.71 µA
[8]; 500 µM VUAA1, TEVC, versus AbakOrco, AalbOrco, CquiOrco
  Current amplitude in the presence of VUAA1 compared with Orcos of other species: highest current amplitude
[8]; Fig.4b
  VUAA1-induced current, WT: 1.7 and 1.54 and 2.24 and 5.84 and 5.68 and 11.97 and 10.02 and 8.3 and 7.33 and 2.12 and 1.87 and 2.7 and 3.73 and 16.35 and 2.15 and 5.7
[8]; [9]
  VUAA1-induced current, WT: 0.03 and 0.04 (2×) and 0.02 and 0.09 and 0.05 and 0.06
[8]; [10]
  VUAA1-induced current, WT: 0.27 and 0.36 and 0.04 (4×) and 0.08 (2×) and 0.03 (3×) and 0.02 and 0.05 (3×) and 0.15 and 0 and 0.09 and 0.12 and 0.07
[8]; [11]
  VUAA1-induced current, WT: 0.58 and 0.72 and 0.4 (2×) and 0.37 and 0.54 and 0.11 and 0.17 and 0.26 (3×) and 0.21 and 0.34 and 0.77 and 1.04 and 1.01 (2×) and 0.78 and 1.15 and 1.23
[8]; [12]
  VUAA1-induced current, WT: 1.33 and 1.71 and 2.65 and 2.17 (2×) and 2.77 and 1.82 and 2.07 and 2.22 and 1.61 and 2.38 and 1.2 and 1.79 and 2.19 and 2.6 and 2.64 (2×) and 1.94 and 2.47 and 2.54
[8]; [13]
  VUAA1-induced current, WT: 3.64 (2×) and 4.55 and 3.85 and 4.63 and 4.01 and 4.3 and 4.47 and 4.77 and 5.33 and 1.53 and 3.97 and 4.65 and 2.65 and 2.64 and 2.78 (2×)
[8]; VUAA1 dose-response curve, TEVC, WT
  EC50: 94.5 µM
[8]; concentration-effect curve of VUAA1, TEVC, WT
  Imax: 3.97 µA
